Data from patent US20210128740A1, “HDAC INHIBITORS-BASED ANTIBODY DRUG CONJUGATES (ADCs) AND USE IN THERAPY” (ALFASIGMA S.P.A., priority 2017, published 2021).

Assays:
Parameters in all cases: species or system mice
[1] = system: A549 non-small cell lung carcinoma; test: In vivo antitumor effect of combination of Cetuximab with ST7612AA1 vs ADC against s.c. A549 lung cancer (Example 31)
Description: The human A549 lung carcinoma cells were cultured in their appropriate complete medium. On the day of tumor injection, cells were harvested from subconfluent cultures by trypsinization, washed with PBS, suspended in PBS and subcutaneously injected into the right flank of immunodeficient mice (5×10^6/100 μL). Treatments started when tumor size was around 80 mm^3 and mice were randomized into the experimental groups (10 mice/group): […]

[2] = system: NCI-H1975 non-small cell lung carcinoma; test: In vivo antitumor effect against s.c. NCI-H1975 non-small cell lung cancer; settings: 120 mg/kg, ip, q4dx4
Description: Nude Nu/Nu female mice (from Charles River, Italy) were given a single subcutaneous injection of 5×10^6 NCI-H1975 non-small cell lung carcinoma cells suspended in 100 μL cell culture medium RPMI supplemented with 10% FBS. […] Vehicle group was treated by PBS. Tumor growth was measured with a caliper and tumor volume was calculated using the formula length (mm)×width 2 (mm)/2. The tumor inhibition was calculated according to the equation: % TVI=100−(mean tumor volume of treated group/mean tumor volume of control group)×100. Toxicity was evaluated on the basis of the body weight reduction.
Animals were euthanized by CO2 inhalation when the tumors reached a volume around 1200 mm^3.

[3] = system: CAPAN-1 orthotopic pancreatic tumor; test: In vivo antitumor effect against orthotopic CAPAN-1 pancreas cancer; settings: 200 mg/kg, ip, q4dx4
From the text: Capan-1 (1×10^6) cells were directly injected into pancreas of experimental groups.

SMILES: CC(=O)SCCCCC[C@H](NC(=O)[C@H]1CCC(=O)N1)C(=O)Nc1ccccc1 [ST7612AA1]
- Antitumor activity ([1]; 0.1 mg/kg, ip, q4dx4): not effective
- TVI at day 50 ([1]; 0.1 mg/kg, ip, q4dx4): 0, P = 0.95
- TVI at day 56 ([1]; 0.1 mg/kg, ip, q4dx4): 0, P = 0.88
- TVI at day 50 ([1]; 40 mg/kg, po, qdx5/wx3w): 33, P = 0.007
- TVI at day 56 ([1]; 40 mg/kg, po, qdx5/wx3w): 35, P = 0.0009
- Antitumor activity [2]: completely inactive
- Tumor growth inhibition [3]: 32%
